Test results from US12024510B2, “Pyrazolopyridine-diamides, their use as insecticide and processes for preparing the same” (PI INDUSTRIES LTD., priority 2017, dated 2024).

Tests used:
Type in all cases: in vivo
Spodoptera litura = Spodoptera litura diet incorporation method; details: third instar larvae, dead and moribund combined, 96 h after release
Description: (§1) Test Solutions were Prepared According to the Procedure Described Herein Below (500 PPM):
(§2) • 1. Eppendorf Vortex mixer (ThermoMixer C) and 1.5 mL Eppendorf tubes • 2. Zirconia (Zirconium-Yttrium) beads having diameter of 0.8 to 1.0 mm • 3. Microscope • 4. Beaker 100 mL • 5. Micro-pipette Reagents: • 1. Surfactant Solution • 2. De-mineralized (DM) Water • 1. Weigh 10 mg of the compound of the present invention to be tested in an Eppendorf Tube. • 2. Add 200 mg of the Surfactant Solution into the tube. • 3. Add 600 mg of Zirconia beads into the above mixture. • 4. Fix the tube in Eppendorf Vortex mixer and start vortexing at 2000 rpm. • 5. Mix on Vortex mixer for 30 minutes. After 30 minutes, observe the sample over a microscope at 400× resolution. • 6. If the Maximum particle size is more than 5 μm or average particle size is more than 2 μm or the particle size distribution is uneven, continue vortexing for another 30 minutes and again check the particle size using the microscope. Continue till the average particle size is below 2 microns. • 7. When the required particle size is achieved, add 1.0 mL DM water into the tube, close the cap, shake the tube thoroughly and transfer the contents, along with the beads, into a beaker. • 8. To rinse the tube, add another 1.0 mL of DM water into the tube, close the cap, shake well and transfer this into the same beaker. • 9. Repeat Step no. 8 one more time so that the tube is rinsed well and the compound of the present invention to be tested is transferred to the beaker. • 10. Add 16.8 mL of DM water into the beaker and stir well. • 11. The homogeneous dispersion can then be decanted into a glass vial, immediately, to separate the Zirconia beads. • 12. Immediately use this sample for biological testing. • 13. Further dilutions can be prepared by taking appropriate quantity of the aliquot of Step 10, immediately after stirring, and diluting as per requirement. The sample solution must be well mixed just before biological testing.
(§3) Diet incorporation method was used, in which semi-synthetic diet was incorporated into the test solution when the temperature is approximately 50° C. in the bioassay containers and stirred thoroughly for properly mixing and then was allowed to cool for 30 min. The solidified diet was cut into equal pieces, and then each piece was transferred in one cell in Bio-assay trays. A single third instar starved larva was released into each of these cells of bioassay trays and the tray was covered with the lid. The bio-assay trays were kept under laboratory conditions at a temperature of 25° C. and Relative Humidity of 70%. Observations on dead, moribund and live larvae were recorded at 96 h after the release of larvae. Percent mortality was calculated by combining dead and moribund larvae. The following compound numbers

Plutella xylostella = assay: whole plant or invertebrate; details: foliar, cabbage leaf dip, second instar larvae, dead and moribund combined, 72 h after release
Summary of the method: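 Compounds milled with zirconia beads into surfactant dispersion (500 ppm stock), diluted in 0.01% Triton-X. Cabbage leaves dipped 10 s, shade-dried 20 min; one second-instar larva per cell, 25 °C, 70% RH. Mortality (dead plus moribund) scored at 72 h.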

Helicoverpa armigera = Helicoverpa armigera diet incorporation method; details: third instar larvae, dead and moribund combined, 96 h after release
Description: as §1, §2
as §3, with “which and” for “which”

Q: For `Cc1cc2ccnn2c(C(=O)NCCC#N)c1NC(=O)c1cc(OCC(F)(F)F)nn1-c1ncccc1Cl` [Compound 47, 6-(1-(3-chloropyridin-2-yl)-3-(2,2,2-trifluoroethoxy)-1H-pyrazole-5-carboxamido)-N-(2-cyanoethyl)-5-methylpyrazolo[1,5-a]pyridine-7-carboxamide], which mortality at 300 ppm (Spodoptera litura) is on record?
A: > 70%

Q: And the mortality at 300 ppm (Plutella xylostella)?
A: > 70%

Q: Which mortality at 300 ppm (Helicoverpa armigera) does the source give for `C=CCNC(=O)c1c(NC(=O)c2cc(C(F)(F)F)nn2-c2ncccc2Cl)c(C)cc2ccnn12` [Compound 64, N-allyl-6-(1-(3-chloropyridin-2-yl)-3-(trifluoromethyl)-1H-pyrazole-5-carboxamido)-5-methylpyrazolo[1,5-a]pyridine-7-carboxamide] here?
A: > 70%

Q: What about the mortality at 300 ppm (Spodoptera litura) of the same compound?
A: > 70%

Q: Which mortality at 300 ppm (Helicoverpa armigera) does the source give for `CCCNC(=O)c1c(NC(=O)c2cc(C(F)(F)F)nn2-c2ncccc2Cl)c(C)cc2ccnn12` [Compound 92, 6-(1-(3-chloropyridin-2-yl)-3-(trifluoromethyl)-1H-pyrazole-5-carboxamido)-5-methyl-N-propylpyrazolo[1,5-a]pyridine-7-carboxamide] here?
A: > 70%

Q: And the mortality at 300 ppm (Spodoptera litura)?
A: > 70%

Q: How did the mortality at 300 ppm (Spodoptera litura) turn out when `CCONC(=O)c1c(NC(=O)c2cc(Br)nn2-c2ncccc2Cl)c(C)cc2ccnn12` [Compound 106, 6-(3-bromo-1-(3-chloropyridin-2-yl)-1H-pyrazole-5-carboxamido)-N-ethoxy-5-methylpyrazolo[1,5-a]pyridine-7-carboxamide] was run?
A: > 70%

Q: What about the mortality at 300 ppm (Plutella xylostella) of the same compound?
A: > 70%

Q: For `CC(C)NC(=O)c1c(NC(=O)c2cc(C(F)(F)F)nn2-c2ncccc2Cl)c(Br)cc2ccnn12` [Compound 107, 5-bromo-6-(1-(3-chloropyridin-2-yl)-3-(trifluoromethyl)-1H-pyrazole-5-carboxamido)-N-isopropylpyrazolo[1,5-a]pyridine-7-carboxamide], which mortality at 300 ppm (Helicoverpa armigera) is on record?
A: > 70%

Q: What about the mortality at 300 ppm (Spodoptera litura) of the same compound?
A: > 70%

Q: With `COc1cc(C(=O)Nc2c(C)cc3ccnn3c2C(=O)NCC(F)(F)F)n(-c2ncccc2Cl)n1` [Compound 110, 6-(1-(3-chloropyridin-2-yl)-3-methoxy-1H-pyrazole-5-carboxamido)-5-methyl-N-(2,2,2-trifluoroethyl)pyrazolo[1,5-a]pyridine-7-carboxamide] as the compound, how does the mortality at 300 ppm (Spodoptera litura) read?
A: > 70%

Q: And the mortality at 300 ppm (Plutella xylostella)?
A: > 70%

Q: How did the mortality at 300 ppm (Spodoptera litura) turn out when `CCNC(=O)c1c(NC(=O)c2cc(Br)nn2-c2ncccc2Cl)c(Cl)cc2ccnn12` [Compound 142, 6-(3-bromo-1-(3-chloropyridin-2-yl)-1H-pyrazole-5-carboxamido)-5-chloro-N-ethylpyrazolo[1,5-a]pyridine-7-carboxamide] was run?
A: > 70%

Q: And the mortality at 300 ppm (Plutella xylostella)?
A: > 70%

Q: What does the source list for `CCCC(C)NC(=O)c1c(NC(=O)c2cc(OC)nn2-c2ncccc2Cl)c(C)cc2ccnn12` (stereo not shown) [Compound 184, 6-(1-(3-chloropyridin-2-yl)-3-methoxy-1H-pyrazole-5-carboxamido)-5-methyl-N-(pentan-2-yl)pyrazolo[1,5-a]pyridine-7-carboxamide]?
A: mortality at 300 ppm (Spodoptera litura): > 70%; mortality at 300 ppm (Plutella xylostella): > 70%

Q: `Cc1cc2ccnn2c(C(=O)NC(C)CCC(C)C)c1NC(=O)c1cc(Br)nn1-c1ncccc1Cl` (stereo not shown) [Compound 188, 6-(3-bromo-1-(3-chloropyridin-2-yl)-1H-pyrazole-5-carboxamido)-5-methyl-N-(5-methylhexan-2-yl)pyrazolo[1,5-a]pyridine-7-carboxamide] was tested. Which mortality at 300 ppm (Spodoptera litura) did it give?
A: > 70%

Q: What about the mortality at 300 ppm (Plutella xylostella) of the same compound?
A: > 70%

Q: Which results are given for `Cc1cc2ccnn2c(C(=O)NC2CSC2)c1NC(=O)c1cc(Br)nn1-c1ncccc1Cl` [Compound 207, 6-(3-bromo-1-(3-chloropyridin-2-yl)-1H-pyrazole-5-carboxamido)-5-methyl-N-(thietan-3-yl)pyrazolo[1,5-a]pyridine-7-carboxamide]?
A: mortality at 300 ppm (Spodoptera litura): > 70%; mortality at 300 ppm (Plutella xylostella): > 70%

Q: For `Cc1cc2ccnn2c(C(=O)NC2(C#N)CC2)c1NC(=O)c1cc(Br)nn1-c1ncccc1Cl` [Compound 216, 6-(3-bromo-1-(3-chloropyridin-2-yl)-1H-pyrazole-5-carboxamido)-N-(1-cyanocyclopropyl)-5-methylpyrazolo[1,5-a]pyridine-7-carboxamide], which mortality at 300 ppm (Spodoptera litura) is on record?
A: > 70%

Q: What about the mortality at 300 ppm (Plutella xylostella) of the same compound?
A: > 70%
